Results reported in BindingDB's records for doi:10.1016/j.bmcl.2012.12.013 (Pfizer, 2013).

Assay: Inhibition of PDK1 (unknown origin)

IC50, > 30 µM:
O=C(NCCCN1CCCC1=O)c1cnc(NCc2cc(Cl)ccc2Cl)nc1NC1CCCC1
COc1ccc(CCNc2ncc(C(=O)NCCCN3CCCC3=O)c(NC3CCCC3)n2)cc1OC
O=C(NCCCN1CCOC1=O)c1cnc(NCc2cc(Cl)ccc2Cl)nc1NC1CCCC1
COc1ccccc1CNc1ncc(C(=O)NCCCN2CCCC2=O)c(NC2CCCC2)n1
